In the supplement of paper PMC11208160:

Assay: recombinant UMI read abundance after kanamycin selection (control-corrected) (log10(CPM+1)); higher = more efficient recombination; extreme values may be limits of the assay; sequences stand for … in AGTGCAGAGAAAATCGGCCAGTTTTCTCTGCCTGCAGTCCGCATGCCGTGGGACCCCTTGGGTTCTAACCTGTTGCCTAGATTTATGCAGCGGACTGCCTTTCTCCCAAAGTGATAAACCGG…AGGTTGGTTTCACT; site = the 11-nt donor
Procedure: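 Pooled E. coli donor-specificity screen for the IS621 bridge recombinase. Each library member carries a reprogrammed 11-nt donor and a full-length LE bridge RNA expressed in cis from the natural promoter, with a paired donor-binding loop (8-nt LDG + 4-nt RDG) and a target-binding loop fixed to T5. It is co-electroporated with a T5 target plasmid; recombinase is induced with 0.07 mM IPTG and recombinants are selected on kanamycin. UMIs are counted as CPM, averaged over two biological replicates and corrected by the unselected control. Molecule = full bridge RNA written as DNA, built from the T5 scaffold: LDG = donor specificity nt 1-8, RDG = reverse complement of nt 8-11.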
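Further: IS621 bridge recombinase in Escherichia coli cells against a fixed T5 target plasmid.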

| Sequence | recombinant UMI read abundance (log10) |
| --- | --- |
| AATGTGACATGGACCGGTTTTCCCGGTAATCCGTATTTGAC (site AATGTGACTGT) | 2.69 |
| AATGTGACATGGACCGGTTTTCCCGGTAATCCGTATTTGAC (site AATGTGCCTGT) | 0 |
| AATGTGACATGGACCGGTTTTCCCGGTAATCCGTATTTGAC (site AATGTGGCTGT) | 1.01 |
| AATGTGACATGGACCGGTTTTCCCGGTAATCCGTATTTGAC (site AATGTGTCTGT) | 0 |
| AATGTGGCATGGACCGGTTTTCCCGGTAATCCGTATTTGAC (site AATGTGACTGT) | 1.16 |
| AATGTGGCATGGACCGGTTTTCCCGGTAATCCGTATTTGAC (site AATGTGCCTGT) | 0.00397 |
| AATGTGGCATGGACCGGTTTTCCCGGTAATCCGTATTTGAC (site AATGTGGCTGT) | 1.81 |
| AATGTGGCATGGACCGGTTTTCCCGGTAATCCGTATTTGAC (site AATGTGTCTGT) | 0.451 |
| AATGTGTCATGGACCGGTTTTCCCGGTAATCCGTATTTGGC (site AATGTGTCTGA) | 0 |
| AATGTGTCATGGACCGGTTTTCCCGGTAATCCGTATTTGGC (site AATGTGTCTGC) | 2.67 |
| AATGTGTCATGGACCGGTTTTCCCGGTAATCCGTATTTGGC (site AATGTGTCTGG) | 0.957 |
| AATGTGTCATGGACCGGTTTTCCCGGTAATCCGTATTTGGC (site AATGTGTCTGT) | 1.99 |
| AATGTTTCATGGACCGGTTTTCCCGGTAATCCGTATTTGAC (site AATGTATCTGT) | 1.73 |
| AATGTTTCATGGACCGGTTTTCCCGGTAATCCGTATTTGAC (site AATGTCTCTGT) | 0 |
| AATGTTTCATGGACCGGTTTTCCCGGTAATCCGTATTTGAC (site AATGTGTCTGT) | 0 |
| AATGTTTCATGGACCGGTTTTCCCGGTAATCCGTATTTGAC (site AATGTTTCTGT) | 0 |
| AATTAAACATGGACCGGTTTTCCCGGTAATCCGTATTTGTA (site AATTAAACTTA) | 0.643 |
| AATTAAACATGGACCGGTTTTCCCGGTAATCCGTATTTGTT (site AATTAAACTAA) | 0.00778 |
| AATTAATCATGGACCGGTTTTCCCGGTAATCCGTATTTGAT (site AATTAATCTAT) | 1.47 |

| Sequence | recombinant UMI read abundance (log10) |
| --- | --- |
| AATTAGGCATGGACCGGTTTTCCCGGTAATCCGTATTTGGG (site AATTAGGCTCC) | 0.0811 |
| AATTATACATGGACCGGTTTTCCCGGTAATCCGTATTTGGA (site AATTATACTTC) | 0.828 |
| AATTATACATGGACCGGTTTTCCCGGTAATCCGTATTTGGA (site AATTATCCTTC) | 0.0125 |
| AATTATACATGGACCGGTTTTCCCGGTAATCCGTATTTGGA (site AATTATGCTTC) | 0.476 |
| AATTATACATGGACCGGTTTTCCCGGTAATCCGTATTTGGA (site AATTATTCTTC) | 0.335 |
| AATTATGCATGGACCGGTTTTCCCGGTAATCCGTATTTGAA (site AATTATGCTTA) | 0.0142 |
| AATTATGCATGGACCGGTTTTCCCGGTAATCCGTATTTGAA (site AATTATGCTTC) | 0.0246 |
| AATTATGCATGGACCGGTTTTCCCGGTAATCCGTATTTGAA (site AATTATGCTTG) | 0 |
| AATTATGCATGGACCGGTTTTCCCGGTAATCCGTATTTGAA (site AATTATGCTTT) | 0.313 |
| AATTATGCATGGACCGGTTTTCCCGGTAATCCGTATTTGGG (site AATTATGCTAC) | 0.00898 |
| AATTATGCATGGACCGGTTTTCCCGGTAATCCGTATTTGGG (site AATTATGCTCC) | 0.388 |
| AATTATGCATGGACCGGTTTTCCCGGTAATCCGTATTTGGG (site AATTATGCTGC) | 0 |
| AATTATGCATGGACCGGTTTTCCCGGTAATCCGTATTTGGG (site AATTATGCTTC) | 0.0224 |
| AATTATGCATGGACCGGTTTTCCCGGTAATCCGTATTTGTA (site AATTATGCTTA) | 1.02 |
| AATTATGCATGGACCGGTTTTCCCGGTAATCCGTATTTGTA (site AATTATGCTTC) | 0.0111 |
| AATTATGCATGGACCGGTTTTCCCGGTAATCCGTATTTGTA (site AATTATGCTTG) | 0.00449 |
| AATTATGCATGGACCGGTTTTCCCGGTAATCCGTATTTGTA (site AATTATGCTTT) | 0.0175 |
| AATTGGGCATGGACCGGTTTTCCCGGTAATCCGTATTTGAT (site AATTGGGCTAT) | 0.68 |
| AATTTGGCATGGACCGGTTTTCCCGGTAATCCGTATTTGTG (site AATTTGGCTCA) | 0.122 |

| Sequence | recombinant UMI read abundance (log10) |
| --- | --- |
| AATTTGGCATGGACCGGTTTTCCCGGTAATCCGTATTTGTG (site CATTTGGCTCA) | 0.00721 |
| AATTTGGCATGGACCGGTTTTCCCGGTAATCCGTATTTGTG (site GATTTGGCTCA) | 0.011 |
| AATTTGGCATGGACCGGTTTTCCCGGTAATCCGTATTTGTG (site TATTTGGCTCA) | 0.187 |
| AATTTGTCATGGACCGGTTTTCCCGGTAATCCGTATTTGAT (site AATTTGTCTAT) | 0.517 |
| ACAAGGACATGGACCGGTTTTCCCGGTAATCCGTATTTGTT (site ACAAGGACTAA) | 2.32 |
| ACAAGTCCATGGACCGGTTTTCCCGGTAATCCGTATTTGTC (site ACAAGTCCTGA) | 0 |
| ACACAGCCATGGACCGGTTTTCCCGGTAATCCGTATTTGTC (site ACACAGCCTGA) | 0 |
| ACACATCCATGGACCGGTTTTCCCGGTAATCCGTATTTGAC (site AAACATCCTGT) | 0 |
| ACACATCCATGGACCGGTTTTCCCGGTAATCCGTATTTGAC (site ACAAATCCTGT) | 0 |
| ACACATCCATGGACCGGTTTTCCCGGTAATCCGTATTTGAC (site ACACAACCTGT) | 0 |
| ACACATCCATGGACCGGTTTTCCCGGTAATCCGTATTTGAC (site ACACACCCTGT) | 0.501 |
| ACACATCCATGGACCGGTTTTCCCGGTAATCCGTATTTGAC (site ACACAGCCTGT) | 0.424 |
| ACACATCCATGGACCGGTTTTCCCGGTAATCCGTATTTGAC (site ACACATACTGT) | 0.457 |
| ACACATCCATGGACCGGTTTTCCCGGTAATCCGTATTTGAC (site ACACATCCTAT) | 0.0886 |
| ACACATCCATGGACCGGTTTTCCCGGTAATCCGTATTTGAC (site ACACATCCTCT) | 0.265 |
| ACACATCCATGGACCGGTTTTCCCGGTAATCCGTATTTGAC (site ACACATCCTGA) | 0 |
| ACACATCCATGGACCGGTTTTCCCGGTAATCCGTATTTGAC (site ACACATCCTGC) | 0 |
| ACACATCCATGGACCGGTTTTCCCGGTAATCCGTATTTGAC (site ACACATCCTGG) | 0 |
| ACACATCCATGGACCGGTTTTCCCGGTAATCCGTATTTGAC (site ACACATCCTGT) | 1.22 |
